Patent publication US11174268B2, “Benzenesulfonamide compouds and their use as therapeutic agents” (Xenon Pharmaceuticals Inc., priority 2016, dated 2021)
Structures can show the parent of a compound that is named as a salt. Where two headings read alike, the source gives them in different places.

Columns and labels:
[1] = target: NaV1.6 (Homo sapiens (Human), UniProt Q9UQD0); assay: Sodium Influx Assay (Flux), NaV1.6; type: cell-based; conditions: Trex HEK293 cells, ANG2 dye, inactivated state;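 also: Tetracycline-induced cells, compounds applied for one hour at room temperature with modulators holding channels open, IC50 from percent inhibition of sodium influx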
[2] = target: NaV1.1 (Homo sapiens (Human), UniProt P35498); assay: Sodium Influx Assay (Flux), NaV1.1; type: cell-based; conditions: Trex HEK293 cells, ANG2 dye, inactivated state;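 also: channels co-expressed with human β1 subunit and held open by modulators, cells exposed to compounds for one hour at room temperature, IC50 from percent inhibition of influx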
[3] = target: NaV1.5 (Homo sapiens (Human), UniProt Q14524); assay: Sodium Influx Assay (Flux), NaV1.5
[4] = read-out: Flux NaV1.5 IC50, Trex HEK293 cells, ANG2 dye, inactivated state

Chain of NaV1.5 (Q14524 other isoform, or with tags, fused parts or gaps): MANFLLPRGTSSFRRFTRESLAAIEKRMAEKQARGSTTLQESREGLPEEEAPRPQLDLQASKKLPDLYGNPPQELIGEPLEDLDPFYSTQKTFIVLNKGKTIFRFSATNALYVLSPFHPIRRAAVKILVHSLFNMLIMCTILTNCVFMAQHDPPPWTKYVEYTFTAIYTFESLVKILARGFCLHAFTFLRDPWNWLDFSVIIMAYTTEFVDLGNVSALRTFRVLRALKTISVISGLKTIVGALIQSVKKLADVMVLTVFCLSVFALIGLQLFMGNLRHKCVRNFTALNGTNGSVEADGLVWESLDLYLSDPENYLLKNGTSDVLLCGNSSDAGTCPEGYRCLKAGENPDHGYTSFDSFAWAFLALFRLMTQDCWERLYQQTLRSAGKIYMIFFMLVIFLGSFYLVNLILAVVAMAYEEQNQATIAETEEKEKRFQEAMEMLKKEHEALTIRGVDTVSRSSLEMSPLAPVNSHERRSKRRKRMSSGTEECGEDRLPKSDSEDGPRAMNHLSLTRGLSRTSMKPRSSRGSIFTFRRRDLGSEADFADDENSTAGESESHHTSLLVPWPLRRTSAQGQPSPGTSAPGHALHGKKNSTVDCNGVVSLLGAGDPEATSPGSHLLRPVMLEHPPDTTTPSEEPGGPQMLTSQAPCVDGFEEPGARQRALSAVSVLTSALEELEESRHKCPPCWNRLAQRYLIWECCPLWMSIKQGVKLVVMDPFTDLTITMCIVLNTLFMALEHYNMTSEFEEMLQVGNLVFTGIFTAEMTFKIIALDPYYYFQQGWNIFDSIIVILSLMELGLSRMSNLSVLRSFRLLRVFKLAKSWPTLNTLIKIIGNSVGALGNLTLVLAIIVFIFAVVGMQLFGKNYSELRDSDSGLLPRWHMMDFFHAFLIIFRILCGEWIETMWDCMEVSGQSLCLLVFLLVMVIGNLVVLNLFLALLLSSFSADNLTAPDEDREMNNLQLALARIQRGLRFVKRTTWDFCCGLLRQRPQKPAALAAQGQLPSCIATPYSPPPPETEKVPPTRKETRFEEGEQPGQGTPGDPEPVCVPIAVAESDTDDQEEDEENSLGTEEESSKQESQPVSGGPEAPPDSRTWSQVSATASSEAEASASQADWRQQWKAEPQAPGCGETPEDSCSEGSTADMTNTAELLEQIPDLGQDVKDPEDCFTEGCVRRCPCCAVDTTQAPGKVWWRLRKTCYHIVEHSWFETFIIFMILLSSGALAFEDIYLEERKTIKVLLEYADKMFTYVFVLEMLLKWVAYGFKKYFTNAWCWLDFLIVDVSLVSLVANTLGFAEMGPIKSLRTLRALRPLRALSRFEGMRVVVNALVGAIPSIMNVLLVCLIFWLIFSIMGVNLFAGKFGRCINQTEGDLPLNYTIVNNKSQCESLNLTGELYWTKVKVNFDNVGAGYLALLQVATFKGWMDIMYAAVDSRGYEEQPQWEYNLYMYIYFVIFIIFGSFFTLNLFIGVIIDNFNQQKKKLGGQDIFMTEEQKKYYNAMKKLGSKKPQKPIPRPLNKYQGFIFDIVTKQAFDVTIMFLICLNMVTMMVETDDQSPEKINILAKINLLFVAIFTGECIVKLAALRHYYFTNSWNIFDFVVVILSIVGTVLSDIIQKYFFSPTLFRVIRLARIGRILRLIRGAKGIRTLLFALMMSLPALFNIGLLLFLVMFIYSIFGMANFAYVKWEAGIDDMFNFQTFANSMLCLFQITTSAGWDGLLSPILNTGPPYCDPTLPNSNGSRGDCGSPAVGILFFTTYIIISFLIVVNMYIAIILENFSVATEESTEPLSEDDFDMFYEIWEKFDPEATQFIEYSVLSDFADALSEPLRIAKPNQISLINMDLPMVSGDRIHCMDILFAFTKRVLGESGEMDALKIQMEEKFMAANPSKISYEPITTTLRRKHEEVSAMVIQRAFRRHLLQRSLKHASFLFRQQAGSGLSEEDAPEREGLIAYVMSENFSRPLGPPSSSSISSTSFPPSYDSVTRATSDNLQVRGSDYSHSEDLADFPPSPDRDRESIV

| IC50 [1] | IC50 [2] | Molecule | IC50 [3, 4] | IC50 [3] |
| --- | --- | --- | --- | --- |
| 5.38 µM | 10.5 µM | C[C@H](Nc1cc(F)c(S(=O)(=O)Nc2ccnc(C(F)(F)F)n2)cc1Cl)c1ccccc1Cl [Example 245, (S)-5-chloro-4-((1-(2-chlorophenyl)ethyl)amino)-2-fluoro-N-(2-(trifluoromethyl)pyrimidin-4-yl)benzenesulfonamide] | 6.55 µM | – |
| 1.02 µM | 7.71 µM | O=S(=O)(Nc1cscn1)c1cc(Cl)c(NCc2cc(CCN3CC(F)C3)ccc2F)cc1F [Example 263, 5-chloro-2-fluoro-4-((2-fluoro-5-(2-(3-fluoroazetidin-1-yl)ethyl)benzyl)amino)-N-(thiazol-4-yl)benzenesulfonamide formate] | 4.78 µM | – |
| 0.785 µM | 7.19 µM | O=S(=O)(Nc1cscn1)c1cc(Cl)c(NCc2c(F)ccc3cc[nH]c23)cc1F [Example 298, 5-chloro-2-fluoro-4-(((6-fluoro-1H-indol-7-yl)methyl)amino)-N-(thiazol-4-yl)benzenesulfonamide] | 11.3 µM | – |
| 0.669 µM | 4.62 µM | C[C@H](Nc1cc(F)c(S(=O)(=O)Nc2cscn2)cc1Cl)c1cc(O)ccc1F [Example 234, (S)-5-chloro-2-fluoro-4-((1-(2-fluoro-5-hydroxyphenyl)ethyl)amino)-N-(thiazol-4-yl)benzenesulfonamide] | 8.67 µM | – |
| 3.17 µM | 30 µM | C[C@H](Nc1cc(F)c(S(=O)(=O)Nc2ccon2)c(F)c1)c1cc(F)ccc1F [Example 240, (S)-4-((1-(2,5-difluorophenyl)ethyl)amino)-2,6-difluoro-N-(isoxazol-3-yl)benzenesulfonamide] | 30 µM | – |
| 0.163 µM | 30 µM | CN(C)Cc1cccc(F)c1CNc1cc(F)c(S(=O)(=O)Nc2cscn2)cc1Cl [Example 249, 5-chloro-4-((2-((dimethylamino)methyl)-6-fluorobenzyl)amino)-2-fluoro-N-(thiazol-4-yl)benzenesulfonamide 2,2,2-trifluoroacetate] | 30 µM | – |
| 1.31 µM | 16.9 µM | O=S(=O)(Nc1ccc(F)cn1)c1c(F)cc(NCc2c(F)cccc2CN2CCC2)cc1F [Example 296, 4-((2-(azetidin-1-ylmethyl)-6-fluorobenzyl)amino)-2,6-difluoro-N-(5-fluoropyridin-2-yl)benzenesulfonamide formate] | 30 µM | – |
| 0.584 µM | 2.78 µM | Cc1cc(N[C@@H](C)c2ccccc2F)c(Cl)cc1S(=O)(=O)Nc1nccs1 [Example 269, (S)-5-chloro-4-((1-(2-fluorophenyl)ethyl)amino)-2-methyl-N-(thiazol-2-yl)benzenesulfonamide] | 6.72 µM | – |
| 0.057 µM | 14.2 µM | Cc1c(NCc2ccccc2CN2CCC2(C)C)cc(F)c(S(=O)(=O)Nc2cscn2)c1F [Example 305, 4-((2-((2,2-dimethylazetidin-1-yl)methyl)benzyl)amino)-2,6-difluoro-3-methyl-N-(thiazol-4-yl)benzenesulfonamide 2,2,2-trifluoroacetate] | 30 µM | – |
| 3.71 µM | 8.68 µM | O=S(=O)(Nc1cscn1)c1cc(Cl)c(NCc2c(F)cccc2CN2CCC(F)(F)CC2)cc1F [Example 251, 5-chloro-4-((2-((4,4-difluoropiperidin-1-yl)methyl)-6-fluorobenzyl)amino)-2-fluoro-N-(thiazol-4-yl)benzenesulfonamide] | 3.35 µM | – |
| 0.055 µM | 6.5 µM | O=S(=O)(Nc1cscn1)c1c(F)cc(NCc2ccccc2CCN2CC(F)C2)cc1F [Example 320, 4-((2-(2-(3-fluoroazetidin-1-yl)ethyl)benzyl)amino)-2,6-difluoro-N-(thiazol-4-yl)benzenesulfonamide formate] | 17.9 µM | – |
| – | 6.45 µM | COc1ccc(F)c([C@H](C)Nc2cc(F)c(S(=O)(=O)Nc3cscn3)c(F)c2)c1 [Example 238, (S)-2,6-difluoro-4-((1-(2-fluoro-5-methoxyphenyl)ethyl)amino)-N-(thiazol-4-yl)benzenesulfonamide] | – | – |

More lines, now with the values behind:

| Molecule | IC50 [1] | IC50 [2] | IC50 [3, 4] | IC50 [3] |
| --- | --- | --- | --- | --- |
| O=S(=O)(Nc1nccs1)c1cc(Cl)c(N[C@H](CN2CC(F)C2)c2ccccc2)cc1F [Example 68, (S)-5-chloro-4-((2-(3-fluoroazetidin-1-yl)-1-phenylethyl)amino)-2-fluoro-N-(thiazol-2-yl)benzenesulfonamide 2,2,2-trifluoroacetate] | 1.81 µM | 5.15 µM | 25.3 µM | – |
| C[C@H](Nc1cc(F)c(S(=O)(=O)Nc2cscn2)cc1Cl)c1cc(C2CC2)ccc1F [Example 146, (S)-5-chloro-4-((1-(5-cyclopropyl-2-fluorophenyl)ethyl)amino)-2-fluoro-N-(thiazol-4-yl)benzenesulfonamide] | 4.12 µM | 5.57 µM | 9.84 µM | – |
| O=S(=O)(Nc1cscn1)c1c(F)cc(NCc2c(F)cccc2CN2CC3(C2)CC3(F)F)cc1F [Example 163, 4-((2-((1,1-difluoro-5-azaspiro[2.3]hexan-5-yl)methyl)-6-fluorobenzyl)amino)-2,6-difluoro-N-(thiazol-4-yl)benzenesulfonamide] | 0.288 µM | 6.35 µM | 30 µM | – |
| C[C@H](Nc1cc(F)c(S(=O)(=O)Nc2nccs2)cc1Cl)c1ccc(Cl)cc1 [Example 14, (S)-5-chloro-4-((1-(4-chlorophenyl)ethyl)amino)-2-fluoro-N-(thiazol-2-yl)benzenesulfonamide] | 1.79 µM | 4.65 µM | 14.4 µM | – |
| O=S(=O)(Nc1cscn1)c1cc(Cl)c(OC2CCc3c2cccc3C(F)(F)F)cc1F (stereo not drawn) [Example 29, 5-chloro-2-fluoro-N-(thiazol-4-yl)-4-((4-(trifluoromethyl)-2,3-dihydro-1H-inden-1-yl)oxy)benzenesulfonamide] | 30 µM | 30 µM | 24.6 µM | – |
| CN(C)Cc1cccc(F)c1CNc1cc(F)c(S(=O)(=O)Nc2cscn2)c(F)c1 [Example 165, 4-((2-((dimethylamino)methyl)-6-fluorobenzyl)amino)-2,6-difluoro-N-(thiazol-4-yl)benzenesulfonamide formate] | 0.361 µM | 14.9 µM | – | 20.8 µM |
| O=S(=O)(Nc1ncns1)c1ccc(N[C@@H]2CCc3ccccc32)c(Cl)c1 [Example 35, (R)-3-chloro-4-((2,3-dihydro-1H-inden-1-yl)amino)-N-(1,2,4-thiadiazol-5-yl)benzenesulfonamide] | 0.839 µM | 0.301 µM | 8.69 µM | – |
| 4-((2-((3-(difluoromethyl)azetidin-1-yl)methyl)-6-fluorobenzyl)amino)-2,6-difluoro-N-(thiazol-4-yl)benzenesulfonamide formate [Example 168] | 0.12 µM | 17.7 µM | 21.7 µM | – |
| O=S(=O)(Nc1nccs1)c1cc(Cl)c(N[C@H](CN2CC(F)(F)C2)c2ccccc2)cc1F [Example 69, (S)-5-chloro-4-((2-(3,3-difluoroazetidin-1-yl)-1-phenylethyl)amino)-2-fluoro-N-(thiazol-2-yl)benzenesulfonamide] | 1.59 µM | 3.03 µM | 7.66 µM | – |
| C[C@@H](Oc1ccc(S(=O)(=O)Nc2ncns2)cc1Cl)c1ccccc1 (racemic) [Example 87, (R) and (S)-3-chloro-4-(1-phenylethoxy)-N-(1,2,4-thiadiazol-5-yl)benzenesulfonamide] | 8.6 µM | ≥ 30 µM | – | 24.7 µM |
| CC(CNc1ccc(S(=O)(=O)Nc2ncns2)cc1Cl)c1ccccc1 (stereo not drawn) [Example 34, 3-chloro-4-((2-phenylpropyl)amino)-N-(1,2,4-thiadiazol-5-yl)benzenesulfonamide] | 1.27 µM | 0.84 µM | 4.91 µM | – |
| N#Cc1ccccc1CNc1cc(F)c(S(=O)(=O)Nc2nccs2)cc1Cl [Example 17, 5-chloro-4-((2-cyanobenzyl)amino)-2-fluoro-N-(thiazol-2-yl)benzenesulfonamide] | 0.308 µM | 0.494 µM | 8.46 µM | – |
| C[C@H](Sc1cc(F)c(S(=O)(=O)Nc2nccs2)cc1Cl)c1ccccc1 [Example 125, (S)-5-chloro-2-fluoro-4-((1-phenylethyl)thio)-N-(thiazol-2-yl)benzenesulfonamide] | 1.73 µM | 3.26 µM | 3.35 µM | – |
| O=S(=O)(Nc1cscn1)c1c(F)cc(NCc2c(F)cccc2CN2CC3(COC3)C2)cc1F [Example 153, 4-((2-((2-oxa-6-azaspiro[3.3]heptan-6-yl)methyl)-6-fluorobenzyl)amino)-2,6-difluoro-N-(thiazol-4-yl)benzenesulfonamide formate] | – | – | 30 µM | – |
| CCc1cc(S(=O)(=O)Nc2cscn2)c(F)cc1N[C@@H](C)c1cc(F)ccc1F [Example 297, (S)-4-((1-(2,5-difluorophenyl)ethyl)amino)-5-ethyl-2-fluoro-N-(thiazol-4-yl)benzenesulfonamide] | – | – | 8.63 µM | – |
| C[C@H](Nc1ccc(S(=O)(=O)Nc2cscn2)cc1C(F)(F)F)c1cc(F)ccc1F [Example 274, (S)-4-((1-(2,5-difluorophenyl)ethyl)amino)-N-(thiazol-4-yl)-3-(trifluoromethyl)benzenesulfonamide] | – | – | 4.6 µM | – |
| O=S(=O)(Nc1cscn1)c1c(F)cc(NCc2c(F)cccc2CN2CCCC2)cc1F [Example 166, 2,6-difluoro-4-((2-fluoro-6-(pyrrolidin-1-ylmethyl)benzyl)amino)-N-(thiazol-4-yl)benzenesulfonamide formate] | – | – | 15.2 µM | – |
| COC1CN(Cc2cccc(F)c2CNc2cc(F)c(S(=O)(=O)Nc3cscn3)c(F)c2)C1 [Example 171, 2,6-difluoro-4-((2-fluoro-6-((3-methoxyazetidin-1-yl)methyl)benzyl)amino)-N-(thiazol-4-yl)benzenesulfonamide formate] | – | – | 16.8 µM | – |
